# Test results published in ChEMBL document CHEMBL5634137, “2,4-Diacetylphloroglucinol (DAPG) derivatives rapidly eradicate methicillin-resistant staphylococcus aureus without resistance development by disrupting membrane” (Eur J Med Chem, 2023).
# Calls of active or inactive are those of the source. The rule behind the calls is not given here.
# Columns and labels:
# Klebsiella pneumoniae = test: Antibacterial activity against Klebsiella pneumoniae […] assessed as inhibition of bacterial growth incubated for 24 hrs by broth dilution method; format: functional
# Pseudomonas aeruginosa = test: Antibacterial activity against Pseudomonas aeruginosa […] assessed as inhibition of bacterial growth incubated for 24 hrs by broth dilution method; format: functional
# Staphylococcus aureus [1] = test: Antibacterial activity against Methicillin-resistant Staphylococcus aureus USA300 infected in mouse skin infection model assessed as reduction in number of bacteria at 10 mg/kg, sc administered every 12 hrs for 3 days; format: functional
# Escherichia coli = test: Antibacterial activity against Escherichia coli ATCC 11775 assessed as inhibition of bacterial growth incubated for 24 hrs by broth dilution method; format: functional
# Staphylococcus aureus [2] = test: Antibacterial activity against Methicillin-resistant Staphylococcus aureus USA300 assessed as inhibition of bacterial growth incubated for 24 hrs by broth dilution method; format: functional
# Staphylococcus aureus [3] = test: Bactericidal activity against methicillin-resistant Staphylococcus aureus ATCC 3392 assessed as inhibition of bacterial growth incubated for 24 hrs by broth dilution method; format: functional
# Staphylococcus aureus [4] = test: Selectivity index, ratio of MBC for bactericidal against methicillin-resistant Staphylococcus aureus ATCC 3392 to MIC for antibacterial activity against methicillin-resistant Staphylococcus aureus ATCC 3392; format: functional
# Staphylococcus aureus [5] = test: Antibacterial activity against methicillin-resistant Staphylococcus aureus ATCC 3392 assessed as inhibition of bacterial growth incubated for 24 hrs by broth dilution method; format: functional
# Staphylococcus aureus [6] = test: Bactericidal against methicillin-resistant Staphylococcus aureus ATCC 4330 assessed as inhibition of bacterial growth incubated for 24 hrs by broth dilution method; format: functional
# [7] = Cytotoxicity against mouse RAW264.7 cells assessed as survival rate incubated for 24 hrs by MTT assay; format: toxicity, cell-based; set-up: concentration or dose not given beside the values; details: read-out: Survival
# [8] = Cytotoxicity against human L02 cells assessed as survival rate incubated for 24 hrs by MTT assay; format: toxicity, cell-based; set-up: concentration or dose not given beside the values; details: read-out: Survival
# Staphylococcus aureus [9] = test: Selectivity index, ratio of MBC for bactericidal against methicillin-resistant Staphylococcus aureus ATCC 4330 to MIC for antibacterial activity against methicillin-resistant Staphylococcus aureus ATCC 4330; format: functional
# Staphylococcus aureus [10] = test: Antibacterial activity against methicillin-resistant Staphylococcus aureus ATCC 4330 assessed as inhibition of bacterial growth incubated for 24 hrs by broth dilution method; format: functional
# Cell membrane [11] = test: Induction of cell membrane damage in Staphylococcus aureus USA300 assessed as nucleic acid leakage at 4 to 8 times MIC measured for 3 hrs by confocal laser scanning microscopic analysis; format: cell membranes
# Staphylococcus aureus [12] = test: Inhibition of staphyloxanthin biosynthesis in Methicillin-resistant Staphylococcus aureus ATCC 3392 assessed as reduction in 4,4-diaponeurosporenic acid formation at 0.125 to 0.625 times MIC by nanodrop spectrophotometer analysis; format: functional, organism-based
# Cell membrane [13] = test: Induction of cell membrane damage in Staphylococcus aureus USA300 assessed as nucleic acid leakage at 1 to 2 times MIC by confocal laser scanning microscopic analysis; format: cell membranes
# Staphylococcus aureus [14] = test: Inhibition of staphyloxanthin biosynthesis in Methicillin-resistant Staphylococcus aureus ATCC 3392 assessed as reduction in 4,4-Diaponeurosporene formation at 0.125 to 0.625 times MIC by nanodrop spectrophotometer analysis; format: functional, organism-based
# Staphylococcus aureus [15] = test: Additive antibacterial activity against Methicillin-resistant Staphylococcus aureus USA300 assessed as doxycycline MIC incubated for 24 hrs by checkboard method(reference value: 0.125 microg/ml); format: functional
# [16] = Toxicity in mouse assessed as change in body weight at 10 mg/kg, sc administered every 12 hrs for 4 days; format: organism-based; details: in vivo, 96 h, time 4 day
# Cell membrane [17] = test: Induction of cell membrane damage in Staphylococcus aureus USA300 assessed as intracellular ATP leakage at 1 to 8 times MIC by confocal laser scanning microscopic analysis; format: cell membranes
# Staphylococcus aureus [18] = test: Induction of morphological changes in Staphylococcus aureus USA300 assessed as appearance of wrinkled cell surface at 2 to 4 times MIC by SEM analysis; format: functional, organism-based
# Cell membrane [19] = test: Induction of cell membrane damage in Staphylococcus aureus USA300 assessed as increase in red fluorescence intensity at 2 times MIC by confocal laser scanning microscopic analysis; format: cell membranes
# Staphylococcus aureus [20] = test: Inhibition of staphyloxanthin biosynthesis in Methicillin-resistant Staphylococcus aureus ATCC 3392 assessed as reduction in 4,4-Diapophytoene formation at 0.125 to 0.625 times MIC by nanodrop spectrophotometer analysis; format: functional, organism-based
# Staphylococcus aureus [21] = test: Induction of morphological changes in Staphylococcus aureus USA300 assessed as appearance of broken cell surface at 2 to 4 times MIC by SEM analysis; format: functional, organism-based
# Staphylococcus aureus [22] = test: Antibacterial activity against Methicillin-resistant Staphylococcus aureus USA300 assessed as decrease in number of colonies at 1 to 4 times MIC incubated upto 8 hrs by time-kill kinetics assay; format: functional, organism-based
# Staphylococcus aureus [23] = test: Synergistic antibacterial activity against Methicillin-resistant Staphylococcus aureus USA300 assessed as oxacillin MIC incubated for 24 hrs by checkboard method (reference value: 2 microg/ml); format: functional
# Staphylococcus aureus [24] = test: Antibiofilm activity against Methicillin-resistant Staphylococcus aureus USA300 assessed as biofilm eradication at 32 times MIC by crystal violet staining based assay; format: functional
# Cell membrane [25] = test: Induction of cell membrane damage in Staphylococcus aureus USA300 assessed as intracellular ATP leakage at 16 times MIC by confocal laser scanning microscopic analysis; format: cell membranes
# Staphylococcus aureus [26] = test: Synergistic antibacterial activity against Methicillin-resistant Staphylococcus aureus USA300 assessed as amoxicillin MIC incubated for 24 hrs by checkboard method (reference value: 8 microg/ml); format: functional
# Staphylococcus aureus [27] = test: Induction of resistance development in methicillin resistant Staphylococcus aureus USA300 assessed as fold increase in MIC measured upto 65 days; format: functional; details: time <= 65.0 day
# Cell membrane [28] = test: Induction of inner membrane permeabilization in Staphylococcus aureus USA300 assessed as increase in fluorescence intensity incubated for 90 mins by SYTOX staining based analysis; format: cell membranes
# Cell membrane [29] = test: Induction of inner membrane permeabilization in Staphylococcus aureus USA300 assessed as increase in fluorescence intensity at 1 times MIC incubated for 90 mins by SYTOX staining based analysis
# Staphylococcus aureus [30] = test: Antibiofilm activity against Methicillin-resistant Staphylococcus aureus USA300 assessed as inhibition of biofilm formation at 0.5 times MIC by crystal violet staining based assay; format: functional; set-up: scale not given: the % may be the effect or the level left
# Staphylococcus aureus [31] = test: Antibacterial activity against Methicillin-resistant Staphylococcus aureus USA300 assessed as decrease in number of colonies incubated for 0.5 hrs by time-kill kinetics assay; format: functional, organism-based
# Staphylococcus aureus [32] = test: Synergistic antibacterial activity against Methicillin-resistant Staphylococcus aureus USA300 assessed as fractional inhibitory concentration index in presence of amoxicillin by checkboard method; format: functional
# Staphylococcus aureus [33] = test: Induction of resistance development in methicillin resistant Staphylococcus aureus USA300 at 25 to 150 microg/ml measured upto 65 days; format: functional; details: dose 25-150 µg/ml, time <= 65.0 day
# Staphylococcus aureus [34] = test: Inhibition of staphyloxanthin biosynthesis in Methicillin-resistant Staphylococcus aureus ATCC 3392 assessed as reduction in Staphyloxanthin formation at 0.125 to 0.625 times MIC by nanodrop spectrophotometer analysis; format: functional, organism-based
# Staphylococcus aureus [35] = test: Additive antibacterial activity against Methicillin-resistant Staphylococcus aureus USA300 assessed as fractional inhibitory concentration index in presence of doxycycline by checkboard method; format: functional
# Staphylococcus aureus [36] = test: Antibiofilm activity against Methicillin-resistant Staphylococcus aureus USA300 assessed as biofilm eradication at 16 times MIC by crystal violet staining based assay; format: functional
# Staphylococcus aureus [37] = test: Antibacterial activity against Methicillin-resistant Staphylococcus aureus USA300 assessed as decrease in number of colonies at 0.5 times MIC incubated for 2 to 5 hrs by time-kill kinetics assay; format: functional, organism-based; details: time 2-5 hrs
# Staphylococcus aureus [38] = test: Antibiofilm activity against Methicillin-resistant Staphylococcus aureus USA300 assessed as inhibition of biofilm formation at 0.25 times MIC by crystal violet staining based assay; format: functional; set-up: scale not given: the % may be the effect or the level left
# Staphylococcus aureus [39] = test: Synergistic antibacterial activity against Methicillin-resistant Staphylococcus aureus USA300 assessed as fractional inhibitory concentration index in presence of oxacillin by checkboard method; format: functional
# Staphylococcus aureus [40] = test: Synergistic antibacterial activity against Methicillin-resistant Staphylococcus aureus USA300 infected in mouse skin infection model assessed as reduction in number of bacteria at 10 mg/kg, sc in presence of oxacillin administered every 12 hrs for 3 days; format: functional; details: time 3 day
# Cell membrane [41] = test: Induction of inner membrane permeabilization in Staphylococcus aureus USA300 assessed as increase in fluorescence intensity at 2 times MIC incubated for 40 mins by SYTOX staining based analysis; format: cell membranes
smiles,measurement,setting,value
CN[C@H](CC(C)C)C(=O)N[C@H]1C(=O)N[C@@H](CC(N)=O)C(=O)N[C@H]2C(=O)N[C@H]3C(=O)N[C@H](C(=O)N[C@H](C(=O)O)c4cc(O)cc(O)c4-c4cc3ccc4O)[C@H](O)c3ccc(c(Cl)c3)Oc3cc2cc(c3O[C@@H]2O[C@H](CO)[C@@H](O)[C@H](O)[C@H]2O[C@H]2C[C@](C)(N)[C@H](O)[C@H](C)O2)Oc2ccc(cc2Cl)[C@H]1O [VANCOMYCIN],MIC,Klebsiella pneumoniae,> 64 µg/mL
same,MIC,Pseudomonas aeruginosa,> 64 µg/mL
same,Activity,Staphylococcus aureus [1]; time 3.0 day,inactive
same,MIC,Escherichia coli,> 64 µg/mL
Cc1onc(-c2ccccc2)c1C(=O)N[C@@H]1C(=O)N2[C@@H]1SC(C)(C)[C@@H]2C(=O)O [OXACILLIN],Activity,Staphylococcus aureus [1]; time 3.0 day,inactive
same,MIC,Staphylococcus aureus [2],16 µg/mL
CCCCC(=O)c1c(O)cc(O)c(C(=O)C(C)CC)c1O (stereo not given),MIC,Klebsiella pneumoniae,> 64 µg/mL
same,MBC,Staphylococcus aureus [3],8 µg/mL
same,Selectivity Index,Staphylococcus aureus [4],8
same,MIC,Staphylococcus aureus [5],1 µg/mL
same,MIC,Pseudomonas aeruginosa,> 64 µg/mL
same,MBC,Staphylococcus aureus [6],4 µg/mL
same,viability at 24 h,[7],76%
same,MIC,Escherichia coli,> 64 µg/mL
same,viability at 24 h,[8],75%
same,Selectivity Index,Staphylococcus aureus [9],4
same,MIC,Staphylococcus aureus [10],1 µg/mL
same,MIC,Staphylococcus aureus [2],1 µg/mL
CCCCC(=O)c1c(O)cc(O)c(C(=O)C2CCCCC2)c1O,MIC,Klebsiella pneumoniae,> 64 µg/mL
same,MBC,Staphylococcus aureus [3],4 µg/mL
same,Selectivity Index,Staphylococcus aureus [4],8
same,MIC,Staphylococcus aureus [5],0.5 µg/mL
same,MIC,Pseudomonas aeruginosa,> 64 µg/mL
same,MBC,Staphylococcus aureus [6],1 µg/mL
same,viability at 24 h,[7],76%
same,MIC,Escherichia coli,> 64 µg/mL
same,viability at 24 h,[8],75%
same,Selectivity Index,Staphylococcus aureus [9],2
same,MIC,Staphylococcus aureus [10],0.5 µg/mL
same,MIC,Staphylococcus aureus [2],0.5 µg/mL
CCCCCCC(=O)c1c(O)cc(O)c(C(=O)CCCCCC)c1O,Activity,Cell membrane [11],Active
same,MIC,Klebsiella pneumoniae,> 64 µg/mL
same,inhibition,Staphylococcus aureus [12],Active
same,MBC,Staphylococcus aureus [3],1 µg/mL
same,Activity,Cell membrane [13],inactive
same,inhibition,Staphylococcus aureus [14],Active
same,MIC,Staphylococcus aureus [15],0.25 µg/mL
same,Activity,[16],Non-Toxic
same,Selectivity Index,Staphylococcus aureus [4],1
same,MIC,Staphylococcus aureus [5],1 µg/mL
same,Activity,Cell membrane [17],Active
same,Activity,Staphylococcus aureus [18],Active
same,Activity,Cell membrane [19],Active
same,inhibition,Staphylococcus aureus [20],inactive
same,MIC,Pseudomonas aeruginosa,> 64 µg/mL
same,Activity,Staphylococcus aureus [21],Active
same,Activity,Staphylococcus aureus [22],Active
same,MIC,Staphylococcus aureus [23],0.125 µg/mL
same,MBC,Staphylococcus aureus [6],1 µg/mL
same,viability at 24 h,[7],76%
same,Activity,Staphylococcus aureus [1]; time 3 day,1.5 log10CFU/g
same,Activity,Staphylococcus aureus [24],~50%
same,Activity,Cell membrane [25],70%
same,MIC,Staphylococcus aureus [26],0.125 µg/mL
same,fold change (FC),Staphylococcus aureus [27],256
same,Activity,Cell membrane [28],Dose-Dependent Effect
same,MIC,Escherichia coli,> 64 µg/mL
same,Activity,Cell membrane [29],Active
same,Activity,Staphylococcus aureus [30],95%
same,viability at 24 h,[8],75%
same,Activity,Staphylococcus aureus [31],Dose-Dependent Effect
same,fractional inhibitory concentration index (FICI),Staphylococcus aureus [32],0.312
same,Activity,Staphylococcus aureus [33],Active
same,inhibition,Staphylococcus aureus [34],Active
same,fractional inhibitory concentration index (FICI),Staphylococcus aureus [35],0.75
same,Activity,Staphylococcus aureus [36],37%
same,Activity,Staphylococcus aureus [37],Active
same,Activity,Staphylococcus aureus [38],58%
same,fractional inhibitory concentration index (FICI),Staphylococcus aureus [39],0.375
same,Activity,Staphylococcus aureus [40],2.5 log10CFU/g
same,Activity,Cell membrane [41],Active
same,MIC,Staphylococcus aureus [10],0.5 µg/mL
same,MIC,Staphylococcus aureus [2],0.5 µg/mL
CCCCC(=O)c1c(O)cc(O)c(C(=O)CCC(C)C)c1O,MIC,Klebsiella pneumoniae,> 64 µg/mL
same,MBC,Staphylococcus aureus [3],8 µg/mL
same,Selectivity Index,Staphylococcus aureus [4],16
same,MIC,Staphylococcus aureus [5],0.5 µg/mL
same,MIC,Pseudomonas aeruginosa,> 64 µg/mL
same,MBC,Staphylococcus aureus [6],2 µg/mL
same,viability at 24 h,[7],76%
same,MIC,Escherichia coli,> 64 µg/mL
same,viability at 24 h,[8],75%
same,Selectivity Index,Staphylococcus aureus [9],4
same,MIC,Staphylococcus aureus [10],0.5 µg/mL
same,MIC,Staphylococcus aureus [2],0.5 µg/mL
